Measurements: US20240252509A1, “SELF-PRESERVING COMPOSITIONS AND MULTI-USE DISPENSERS FOR ADMINISTERING ALPHA-1062” (priority 2021, published 2024)

Tests used:
[1] = system: Aspergillus brasiliensis (ATCC No. 16404); experiment: USP 51 Preservative Challenge Test, A. brasiliensis; format: cell-based; conditions: A. brasiliensis ATCC 16404, 82 mg/mL solution in water
Protocol: (§1) In order to assess the anti-microbial properties of Alpha-1062, the USP (US Pharmacopeia) Chapter 51 Preservative Challenge Test (USP 51) was employed. The USP 51 is a common method used to gauge preservative effectiveness. Much like a Preservative Challenge Screen, it is used to evaluate the effect of preservatives in cosmetics, personal care products, and drug products. Preservatives are typically antimicrobial ingredients that are added to aqueous product formulations to help maintain the safety of the product by inhibiting the growth and reducing the number of microbial contaminants.
(§2) In the context of the present invention, Alpha-1062 (in the form of the gluconate salt) was assessed in place of (as) a preservative. No additional preservative was added to the Alpha-1062 gluconate preparation, rather an anti-microbial effect of the agent itself (Alpha-1062) was assessed. Alpha-1062 is therefore the anti-microbial agent in the assay and experiments described below.
(§3) Cultures of the following microorganisms were applied, as per standard guidelines for USP 51: • Candida albicans (ATCC No. 10231), • Aspergillus brasiliensis (ATCC No. 16404), • Escherichia coli (ATCC No. 8739), • Pseudomonas aeruginosa (ATCC No. 9027), and • Staphylococcus aureus (ATCC No. 6538). […]
(§4) The inoculated containers were incubated at 22.5±2.5° C. and each container was sampled at the appropriate intervals, as specified in Table 3. Any changes observed in the appearance of the culture was recorded at these intervals. By using the plate-count procedure, the number of CFU present in each test preparation was determined for the applicable intervals.
(§5) An inactivator (neutralizer) of the specific antimicrobial was incorporated in the plate count or in the appropriate dilution prepared for plating. These conditions were determined in the validation study for that sample based upon the conditions of media and microbial recovery incubation times listed in Table 2. Using the calculated concentrations of CFU per mL present at the start of the test, the change in log 10 values of the concentration of CFU per mL for each microorganism was calculated at the applicable test intervals, and the changes were expressed in terms of log reductions.
(§6) The requirements for antimicrobial effectiveness are met if the criteria specified under Table 3 are met. No increase is defined as not more than 0.5 log 10 unit higher than the previous value measured. […]
(§7) The USP Criteria for Category 2 were employed in order to determine the presence of an anti-microbial effect. […] For yeast and molds, an antimicrobial effect is evident when no increase from the initial calculated count is determined at 14 and 28 days.

[2] = salts described in WO 2014/016430; cited from earlier work
[3] = system: Candida albicans (ATCC No. 10231); experiment: USP 51 Preservative Challenge Test, C. albicans; format: cell-based; conditions: C. albicans ATCC 10231, 82 mg/mL solution in water
Protocol: as §1, §2, §3, §4, §5, §6, §7

[4] = system: Staphylococcus aureus (ATCC No. 6538); experiment: USP 51 Preservative Challenge Test, S. aureus; format: cell-based; conditions: S. aureus ATCC 6538, 82 mg/mL solution in water
Protocol: as §1, §2, §3, §4, §5, §6, §7

[5] = system: all 5 organisms tested in the USP 51; experiment: USP 51 test, overall assessment against Category 2 criteria; format: cell-based; conditions: 82 mg/mL solution in water, USP Criteria for Category 2
Protocol: as §1
In the context of the present invention, Alpha-1062 (in the form of the gluconate salt) was assessed in place of (as) a preservative. No additional preservative was added to the Alpha-1062 gluconate preparation, rather an anti-microbial effect of the agent itself (Alpha-1062) was assessed. […]
as §6, §7

[6] = system: Pseudomonas aeruginosa (ATCC No. 9027); experiment: USP 51 Preservative Challenge Test, P. aeruginosa; format: cell-based; conditions: P. aeruginosa ATCC 9027, 82 mg/mL solution in water
Protocol: as §1, §2, §3, §4, §5, §6, §7

[7] = system: Escherichia coli (ATCC No. 8739); experiment: USP 51 Preservative Challenge Test, E. coli; format: cell-based; conditions: E. coli ATCC 8739, 82 mg/mL solution in water
Protocol: as §1, §2, §3, §4, §5, §6, §7

[8] = Day 14, log10 reduction from initial count
[9] = Day 28, log10 reduction from initial count

## COc1ccc2c3c1O[C@H]1C[C@@H](OC(=O)c4ccccc4)C=C[C@@]31CCN(C)C2 [Alpha-1062 Gluconate]
[1]; Day 14, initial 2.2 × 10^5 CFU/mL
  CFU/mL Day 14: 1.6 × 10^2 CFU/mL
[1]; [8]
  Log Reduction Day 14: 3.1
[1]; Day 28, initial 2.2 × 10^5 CFU/mL
  CFU/mL Day 28: 1.5 × 10^2 CFU/mL
[1]; [9]
  Log Reduction Day 28: 3.1
[2]
  solubility in water: above 10 % weight per volume (w/v)
[3]; Day 14, initial 6.7 × 10^5 CFU/mL
  CFU/mL Day 14: <10 CFU/mL
[3]; [8]
  Log Reduction Day 14: 4.8
[3]; Day 28, initial 6.7 × 10^5 CFU/mL
  CFU/mL Day 28: <10 CFU/mL
[3]; [9]
  Log Reduction Day 28: 4.8
[4]; Day 14, initial 4.0 × 10^5 CFU/mL
  CFU/mL Day 14: <10 CFU/mL
[4]; [8]
  Log Reduction Day 14: 4.6
[4]; Day 28, initial 4.0 × 10^5 CFU/mL
  CFU/mL Day 28: <10 CFU/mL
[4]; [9]
  Log Reduction Day 28: 4.6
[5]
  anti-microbial effect in the USP 51: strong anti-microbial effect
[6]; Day 14, initial 2.9 × 10^5 CFU/mL
  CFU/mL Day 14: <10 CFU/mL
[6]; [8]
  Log Reduction Day 14: 4.5
[6]; Day 28, initial 2.9 × 10^5 CFU/mL
  CFU/mL Day 28: <10 CFU/mL
[6]; [9]
  Log Reduction Day 28: 4.5
[7]; Day 14, 22.5±2.5° C., initial 9.1 × 10^5 CFU/mL
  CFU/mL Day 14: <10 CFU/mL
[7]; [8]
  Log Reduction Day 14: 5.0
[7]; Day 28, initial 9.1 × 10^5 CFU/mL
  CFU/mL Day 28: <10 CFU/mL
[7]; [9]
  Log Reduction Day 28: 5.0
